Assay results as given in US20030157176A1, “Antimicrobially treated material and methods of preventing coloring thereof” (priority 2001, published 2003).

Assay: Silver ion concentration ranges in the water system
Settings: dissociated in water system
Text: A basic idea of the present invention for preventing coloring of silver zeolite is to make an purposeful use of the concentration rages of silver ions dissociated from silver zeolite in water system, i.e., a concentration range A which is effective for antimicrobial action and a concentration range B which is responsible for coloring.
Namely, the concentration range A which is effective for antimicrobial action is more than 1 ppm that is the antimicrobially effective concentration of silver ions while the concentration range B which is responsible for coloring is 40 ppm or more, so that a concentration range C for silver ions dissociated in the water system, which is effective for antimicrobial action without causing coloring, exists between 1 ppm and 40 ppm (preferably between 5 ppm and 30 ppm).
The concentration range of silver ions dissociated from 1000 ppm silver zeolite in the water system varies from 40 ppm to 600 ppm. This variation is probably due to a decrease in the silver ion concentration caused by generation of silver oxide or adsorption of silver ions in the water system, or is under the influence of the degree of dissociation of silver ions by metal salts, surfactants, and temperature. […]

Substance: silver ions
- antimicrobially effective concentration of silver ions (range A): more than 1 ppm
- silver ion concentration responsible for coloring (range B): ≥ 40 ppm
